# In patent US20140107143A1, “QUATERNARY OPIOID CARBOXAMIDES” (Rensselaer Polytechnic Institute, priority 2007, published 2014):
# Where two headings read alike, the source gives them in different places.
# How the values were obtained:
# antinociception = conditions: cited from earlier work; for duration of action: 1 mg/kg ip in mice
# μ opioid receptors = conditions: cited from earlier work
# κ opioid receptors = conditions: cited from earlier work
# human μ opioid receptor [1] = biological target: T1, human μ opioid receptor (Homo sapiens, UniProt P35372); assay: Opioid receptor binding assay, [3H]DAMGO (μ)
# human μ opioid receptor [2] = biological target: T1, human μ opioid receptor; assay: [35S]GTPγS binding assay, mu (compound alone / with DAMGO)
# Experimental: In a final volume of 0.5 mL, 12 different concentrations of each test compound were incubated with 15 μg (κ), 10 μg (δ) or 7.5 μg (μ) of CHO cell membranes that stably expressed either the human κ or μ opioid receptor. The assay buffer consisted of 50 mM Tris-HCl, pH 7.4, 3 mM MgCl2, 0.2 mM EGTA, 3 μM GDP, and 100 mM NaCl. The final concentration of [35S]GTPγS was 0.080 nM. […] Binding was initiated by the addition of the membranes. […] Data are the mean Emax and EC50 values±S.E.M. from at least three separate experiments, performed in triplicate.
# human κ opioid receptor [3] = biological target: T2, human κ opioid receptor (Homo sapiens, UniProt P41145); assay: [35S]GTPγS binding assay, kappa (compound alone / with U50,488); format: biochemical; parameters: expressed in transfected cells
# Source text: Part 4. […] Binding was initiated by the addition of the membranes.
# [4] = test system: morphine-induced antinociception (tail flick); assay: Tail flick antinociception test; format: in vivo, mice; conditions: for effect on response to morphine, tail flick: oral
# Experimental: Antinociception to acute thermal stimuli was assessed using a commercially available tail flick apparatus (Columbus Instruments, Columbus, Ohio). The tail flick test is purported to be primarily a […] reflexive response assay. In this standard model, mice are gently restrained and their tail is placed over a thermal beam. Once the beam is turned on (instant on; 9.3 watts), the time required to reflexively flick the tail is recorded. The maximum response latency (MRL) was set to 10 seconds to avoid potential thermal injury associated with longer exposure times. If there is no response after 10 seconds, mice are removed and the maximum response latency (MRL; 10 s) is recorded.
# Mice (n=10/group) were first tested in the tail flick test to determine a baseline response. […] The mice were administered different doses of an opioid antagonist (IP or PO, 60 minutes prior to testing in the tail flick test). […] All results are compared to the saline-morphine treatment group mean response latency.
# human κ opioid receptor [5] = biological target: T2, human κ opioid receptor; assay: Opioid receptor binding assay, [3H]U69,593 (κ); conditions: for K: μ / K: δ: ratio of Ki values
# [6] = PK evaluation in rats (plasma, LC-MS/MS); format: in vivo; conditions: oral administration, FIG. 4
# Experimental: Animals were dosed with the example compound and blood samples were collected for 2 hours using the following method. Rats were briefly anesthetized with 1-2% isoflurane and blood samples (approximately […] of whole blood) from a lateral tail vein were collected into tubes containing EDTA. The tubes were centrifuged at 10K×g for 2 minutes to separate plasma. Plasma was pipetted into microcentrifuge vials and stored at −80° C. until plasma levels were determined by liquid chromatography-mass spectrometry/mass spectrometry (LC-MS/MS) (modification of Baranczewski et al., 2006). The lower limit of quantitation (LOQ) for these studies was 1.0 ng/mL and the coefficient of variation for the assay was <4.4%. The mean concentration of the example compound in plasma was calculated for each time point. […]
# A bioanalytical assay was developed and qualified for measurement of the example compound in rat plasma. […] The intra-day accuracy and precision were evaluated by analysis of each 80 ng/mL, 40 ng/mL, and 8 ng/mL assay control (n=5 at each concentration) on the same day. Accuracy was calculated as a percentage ratio of measured concentration to nominal concentration and precision was expressed as the coefficient of variation. […] accuracy and precision were evaluated for each 80 ng/mL, 40 ng/mL, and 8 ng/mL assay control over 10 different runs (n=26 for each control sample). […]
# human δ opioid receptor [7] = biological target: T3, human δ opioid receptor (Homo sapiens, UniProt P41143)
# [8] = test system: morphine-induced antinociception (hot plate); assay: Hot plate antinociception test; format: in vivo, mice
# Experimental: Antinociception to acute thermal stimuli was assessed using a commercially available hot plate apparatus (Columbus Instruments, Columbus, Ohio). The hot plate test is purported to be a supraspinal assay of nociception. The hot plate procedure involves placing each mouse on a heated surface and activating a timer. Mice were placed individually on a hot plate (25.4 cm×25.4 cm surrounded by an acrylic box to prevent the animal from escaping); surface temperature=55° C.) and the response latency to lick either hind paw was recorded. The maximum response latency (MRL) was set to 60 seconds to avoid potential thermal injury associated with longer exposure times. The mouse is removed from the heated surface when it either licks a hind paw in response to the heat or after 60 seconds has elapsed. The latency to respond is recorded and the mouse is returned to its home cage.
# Mice (n=10/group) were first tested to determine a baseline response. […] Mice were then administered different doses of an opioid antagonist (IP or PO, 60 minutes prior to testing on the hot plate test). […] All results are compared to the saline-morphine treatment group mean response latency.
# [9] = test system: morphine's blockade of PGE2-induced diarrhea; assay: PGE2 model of gut motility; format: in vivo, mice
# Experimental: To assess the effects of novel, peripherally acting opioid antagonists, we used a PGE2 (a prostaglandin) model of gut motility. PGE2 induces diarrhea within 15 minutes of an intraperitoneal (IP) injection (0.1 mg/kg) in mice.
# Mice (n=10/group) were given either an IP injection or oral (PO) administration (via gavage) of a novel opioid antagonist (0-3 mg/kg, IP; 0-30 mg/kg, PO) and placed in a Plexiglas pie cage (Braintree Scientific, Braintree, Mass.). Each pie cage holds up to 10 mice and is 21.5 cm in diameter and 7.5 cm in height. Individual chambers are 5 cm (base) and 9 cm (length). […] 30 minutes later mice were treated with PGE2 (0.1 mg/kg, IP) and again returned to the pie cage. During the final observation, the presence or absence of diarrhea was recorded 15 minutes following PGE2 administration. Mice were only tested once. Saline-saline (10 mL/kg, IP) and saline-morphine were the positive control groups and all results were compared to the saline-morphine treatment group. Data represent the percent of mice with PGE2-induced diarrhea at the time of the final observation.
# human δ opioid receptor [10] = biological target: T3, human δ opioid receptor; assay: biochemical
# [11] = read-out: [3H]DAMGO (μ) Ki, CHO membranes, human receptor, mean ± SEM
# [12] = read-out: [3H]U69,593 (K) Ki, CHO membranes, human receptor, mean ± SEM
# T3 sequence (P41143 whole entry): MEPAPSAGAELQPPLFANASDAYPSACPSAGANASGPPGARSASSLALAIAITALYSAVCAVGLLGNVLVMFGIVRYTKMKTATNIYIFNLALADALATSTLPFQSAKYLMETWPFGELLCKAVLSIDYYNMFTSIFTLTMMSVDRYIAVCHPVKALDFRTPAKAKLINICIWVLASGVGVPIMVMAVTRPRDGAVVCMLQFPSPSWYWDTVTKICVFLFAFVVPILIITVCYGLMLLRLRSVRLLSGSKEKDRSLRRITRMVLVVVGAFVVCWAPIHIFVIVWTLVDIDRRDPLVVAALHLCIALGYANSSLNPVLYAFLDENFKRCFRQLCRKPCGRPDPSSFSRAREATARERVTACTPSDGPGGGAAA
# T1 sequence (P35372 whole entry): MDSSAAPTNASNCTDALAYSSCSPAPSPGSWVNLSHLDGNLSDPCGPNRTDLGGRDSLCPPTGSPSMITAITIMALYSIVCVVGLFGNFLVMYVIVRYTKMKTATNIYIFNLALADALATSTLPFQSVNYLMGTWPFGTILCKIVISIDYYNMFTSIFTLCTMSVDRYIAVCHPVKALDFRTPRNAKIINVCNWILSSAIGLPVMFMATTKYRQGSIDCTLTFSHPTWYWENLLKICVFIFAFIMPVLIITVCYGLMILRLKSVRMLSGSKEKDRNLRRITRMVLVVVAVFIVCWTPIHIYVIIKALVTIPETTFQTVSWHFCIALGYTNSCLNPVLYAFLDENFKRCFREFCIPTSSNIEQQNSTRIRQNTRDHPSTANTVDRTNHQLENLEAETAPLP
# T2 sequence (P41145 whole entry): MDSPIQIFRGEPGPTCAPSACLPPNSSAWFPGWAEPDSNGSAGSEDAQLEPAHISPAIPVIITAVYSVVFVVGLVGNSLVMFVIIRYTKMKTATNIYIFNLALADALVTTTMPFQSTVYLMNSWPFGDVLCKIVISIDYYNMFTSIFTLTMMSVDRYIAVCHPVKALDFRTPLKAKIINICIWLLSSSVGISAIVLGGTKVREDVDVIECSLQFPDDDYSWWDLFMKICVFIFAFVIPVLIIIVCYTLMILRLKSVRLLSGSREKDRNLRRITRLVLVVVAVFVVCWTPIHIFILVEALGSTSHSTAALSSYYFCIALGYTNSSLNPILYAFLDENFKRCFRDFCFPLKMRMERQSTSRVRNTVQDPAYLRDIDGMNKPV
compound,measurement,setting,value
"C[C@H]1C2Cc3ccc(C(N)=O)cc3[C@@]1(C)CCN2CC1CC1 [Compound 8-CAC, 8-carboxamidocyclazocine]",duration of action,antinociception,15 h
same,antinociception activity,"antinociception; in vivo, mice",high antinociception activity
same,affinity for μ opioid receptors,μ opioid receptors,high affinity
same,affinity for κ opioid receptors,κ opioid receptors,high affinity
"C[N+]1(CC2CC2)CC[C@]23CC(=O)CC[C@@]2(O)[C@H]1Cc1ccc(C(N)=O)c(O)c13 (stereo partly shown) [Compound 6, 3-Carboxamido-4-hydroxy-naltrexone methiodide]",Ki,human μ opioid receptor [1]; [11],1.3 ± 0.13 nM
same,Emax,human μ opioid receptor [2]; read-out: Mu Cmpd. Alone Emax,-0.28 ± 0.39%
same,IC50,"human μ opioid receptor [2]; read-out: Mu With DAMGO IC50, with 200 nM DAMGO, Mean ± S.E",52 nM
same,Mu With DAMGO Imax,"human μ opioid receptor [2]; with 200 nM DAMGO, Mean ± S.E",96 ± 1.2%
same,melting point,,197 to 198 °C
same,agonist properties at the κ opioid receptor,human κ opioid receptor [3]; compound alone,did not display any agonist properties
same,Emax,"human κ opioid receptor [3]; compound alone, Mean ± S.E, read-out: Kappa Cmpd. Alone Emax",3 ± 2.6%
same,IC50,"human κ opioid receptor [3]; with 100 nM U50,488, Mean ± S.E",7800 ± 530 nM
same,"blocking the analgesic effects of morphine, tail flick","[4]; mice, IP route",moderately effective
same,"blocking the effects of morphine, tail flick","[4]; mice, oral administration",much less effective
same,"effect on response to morphine, tail flick","[4]; mice, 10 mg/kg",did not affect the response to morphine
same,"effect on response to morphine, tail flick","[4]; mice, maximum dose 30 mg/kg, FIG. 2",only partially reverse
same,K: μ,human κ opioid receptor [5],0.17
same,Ki,human κ opioid receptor [5]; [12],7.7 ± 0.9 nM
same,absorption,[6],low
same,Ki,"human δ opioid receptor [7]; read-out: [3H]Naltrindole (δ) Ki, CHO membranes, human receptor, mean ± SEM",280 ± 21 nM
same,"blocking the analgesic effects of morphine, hot plate","[8]; mice, IP route, FIG. 3",marginally effective
same,"change from the baseline morphine response, hot plate","[8]; mice, IP, 3 mg/kg",20-25%
same,"effect on the response to morphine, hot plate","[8]; mice, orally, doses up to 30 mg/kg",no effect
same,activity in blocking PGE2-induced diarrhea,"[9]; mice, doses of 1-10 mg/kg, both routes (IP, PO)",very good activity
same,reversal of the effects of morphine on PGE2-induced diarrhea,"[9]; mice, each route, IP and PO, FIG. 1",dose-dependent reversal of the effects of morphine
C[C@H]1[C@H]2Cc3ccc(O)cc3[C@]1(C)CCN2CC1CC1 [cyclazocine],duration of action,antinociception,2 h
"CC1C2Cc3ccc(O)cc3C1(C)CC[N+]2(C)CC1CC1 (stereo not shown) [Compound 8, Cyclazocine methiodide]",melting point,,165 to 168 °C
same,K: δ,human κ opioid receptor [5],95
same,K: μ,human κ opioid receptor [5],0.2
"C[N+]1(CC2CC2)CC[C@]23c4c5ccc(C(N)=O)c4O[C@H]2C(=O)CC[C@@]3(O)[C@H]1C5 (stereo partly shown) [Compound 4, 3-Carboxamido-naltrexone methiodide]",melting point,,189 to 190 °C
same,K: δ,human κ opioid receptor [5],143
same,K: μ,human κ opioid receptor [5],0.18
same,Ki,human κ opioid receptor [5]; [12],210 ± 22 nM
same,[3H]Naltrindole (δ) inhibition,human δ opioid receptor [7]; @ 10 μm,31% inh. @ 10 μm
"CC1C2Cc3ccc(C(N)=O)cc3C1(C)CC[N+]2(C)CC1CC1 (stereo not shown) [Compound 10, 8-Carboxamido-cyclazocine methiodide]",Ki,human μ opioid receptor [1],1.4 ± 0.19 nM
same,melting point,,237 to 238 °C
same,Ki,human κ opioid receptor [5],17 ± 1.2 nM
same,K: δ,human κ opioid receptor [5],21
same,K: μ,human κ opioid receptor [5],0.082
same,Ki,human δ opioid receptor [10],360 ± 6.5 nM
"C[N+]1(CC2CC2)CC[C@]23c4c5ccc(O)c4O[C@H]2C(=O)CC[C@@]3(O)[C@H]1C5 (stereo partly shown) [Compound 2, Naltrexone Methiodide, reference compound]",Ki,human μ opioid receptor [1]; [11],2 ± 0.27 nM
same,K: δ,human κ opioid receptor [5],143
same,K: μ,human κ opioid receptor [5],0.32
same,Ki,human κ opioid receptor [5]; [12],6.3 ± 0.46 nM
"C[N@+]1(CC2CC2)CC[C@]23CCCC[C@@]2(O)[C@H]1Cc1ccc(C(N)=O)c(O)c13.[Cl-] [Compound 14, (17R)-17-(Cyclopropylmethyl)-4,14-dihydroxy-17-methylmorphinan-17-ium-3-carboxamide chloride]","difference from baseline, tail flick",[4]; even at 30 mg/kg,no statistical difference from baseline
same,central activity (hot plate),[8]; hot plate test,poor central activity
same,"dose at which a statistical difference from baseline is first seen, hot plate",[8]; hot plate test,30 mg/kg
same,hot plate dose relative to dose required in the PGE2 test,[8]; hot plate vs PGE2 test,3 to 10 times higher dose
same,effect on morphine's ability to block PGE2-induced diarrhea,[9]; IP administration at 3 mg/kg,reduces morphine's ability to block PGE2-induced diarrhea
